Source: PubChem BioAssay AID1963430 (Molecular Pharmacology Branch, DTP, NCI, 2024)

Test system: 521955-158-R2-J5-PDC complex spheroid growth, % test/control
Test: Anticancer human tumor 521955-158-R2-J5-PDC patient-derived pancreatic carcinoma cell line growth inhibition [Asc]
Conditions: for IC50: curve of first compound; for viability, T/C: stronger effect = lower value
How it was run: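 Tumor cells were grown as multicellular spheroids with stromal HUVEC and mesenchymal stem cells and treated singly or in combination. Concentrations fell in half-log steps from the clinical Cmax, or from 10 microM where none was known.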

[1] = second compound 0.03 µM, first compound 0.0316 µM
[2] = second compound 0.03 µM, first compound 0.1 µM
[3] = second compound 0.03 µM, first compound 0.316 µM
[4] = second compound 0.03 µM, first compound 1 µM
[5] = second compound 0.03 µM, first compound 3.16 µM
[6] = second compound 0.03 µM, first compound 10 µM
[7] = second compound 0.0949 µM, first compound 0.0316 µM
[8] = second compound 0.0949 µM, first compound 0.1 µM
[9] = second compound 0.0949 µM, first compound 0.316 µM
[10] = second compound 0.0949 µM, first compound 1 µM
[11] = second compound 0.0949 µM, first compound 3.16 µM
[12] = second compound 0.0949 µM, first compound 10 µM
[13] = second compound 0.3 µM, first compound 0.0316 µM
[14] = second compound 0.3 µM, first compound 0.1 µM
[15] = second compound 0.3 µM, first compound 0.316 µM
[16] = second compound 0.3 µM, first compound 1 µM
[17] = second compound 0.3 µM, first compound 3.16 µM
[18] = second compound 0.3 µM, first compound 10 µM
[19] = second compound 0.949 µM, first compound 0.0316 µM
[20] = second compound 0.949 µM, first compound 0.1 µM
[21] = second compound 0.949 µM, first compound 0.316 µM
[22] = second compound 0.949 µM, first compound 1 µM
[23] = second compound 0.949 µM, first compound 3.16 µM
[24] = second compound 0.949 µM, first compound 10 µM
[25] = second compound 3 µM, first compound 0.0316 µM
[26] = second compound 3 µM, first compound 0.1 µM
[27] = second compound 3 µM, first compound 0.316 µM
[28] = second compound 3 µM, first compound 1 µM
[29] = second compound 3 µM, first compound 3.16 µM
[30] = second compound 3 µM, first compound 10 µM
[31] = second compound 0.03 µM, first compound 0.00316 µM
[32] = second compound 0.03 µM, first compound 0.01 µM
[33] = second compound 0.0949 µM, first compound 0.00316 µM
[34] = second compound 0.0949 µM, first compound 0.01 µM
[35] = second compound 0.3 µM, first compound 0.00316 µM
[36] = second compound 0.3 µM, first compound 0.01 µM
[37] = second compound 0.949 µM, first compound 0.00316 µM
[38] = second compound 0.949 µM, first compound 0.01 µM
[39] = second compound 3 µM, first compound 0.00316 µM
[40] = second compound 3 µM, first compound 0.01 µM
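Further: spheroids exposed to agents for 7 days before readout.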
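Wherever viability, T/C is given: 100% = DMSO vehicle control viability.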

Compound C#Cc1c(F)ccc2cc(O)cc(-c3ncc4c(N5CC6CCC(C5)N6)nc(OCC56CCCN5CC(F)C6)nc4c3F)c12 (stereo not given) + CCN1C(C(=O)NC23CCC(C(=O)O)(CC2)CC3)C(c2cccc(Cl)c2F)C2(C(=O)Nc3cc(Cl)ccc32)C12CCCCC2 has an IC50 (second compound 0.03 µM) of less than 31.6 nM, an IC50 (second compound 0.0949 µM) of less than 31.6 nM and an IC50 (second compound 0.3 µM) of less than 31.6 nM. The IC50 (second compound 0.949 µM) was less than 31.6 nM, the IC50 (second compound 3 µM) was 4990 nM and the viability, T/C [1] was 53%. It also gave a viability, T/C [2] of 41.6%, a viability, T/C [3] of 33.2% and a viability, T/C [4] of 35.1%. It also gave a viability, T/C [5] of 35.5%, a viability, T/C [6] of 32% and a viability, T/C [7] of 48.1%. For the same compound, the viability, T/C [8] was 39.8%, the viability, T/C [9] was 44.4% and the viability, T/C [10] was 38%. It also gave a viability, T/C [11] of 41.7%, a viability, T/C [12] of 43.9% and a viability, T/C [13] of 45.9%. The viability, T/C [14] was 44%, the viability, T/C [15] was 39.9% and the viability, T/C [16] was 40.4%. The viability, T/C [17] was 42.9%, the viability, T/C [18] was 39.2% and the viability, T/C [19] was 42.7%. For the same compound, the viability, T/C [20] was 50.6%, the viability, T/C [21] was 56.3% and the viability, T/C [22] was 41.1%. It also gave a viability, T/C [23] of 54.8%, a viability, T/C [24] of 42.4% and a viability, T/C [25] of 70.1%. The viability, T/C [26] was 68.9%, the viability, T/C [27] was 66% and the viability, T/C [28] was 59.1%. It also gave a viability, T/C [29] of 55.1% and a viability, T/C [30] of 43.8%.

C=C(F)C(=O)N1CCN(c2nc(OCC3CCCN3C)nc3c2CCN(c2cccc4cccc(Cl)c24)C3)CC1CC#N (stereo not given) + CCN1C(C(=O)NC23CCC(C(=O)O)(CC2)CC3)C(c2cccc(Cl)c2F)C2(C(=O)Nc3cc(Cl)ccc32)C12CCCCC2 showed an IC50 (second compound 0.03 µM) of 5380 nM, an IC50 (second compound 0.0949 µM) of 5580 nM and an IC50 (second compound 0.3 µM) of 6040 nM. It also gave an IC50 (second compound 0.949 µM) of 6700 nM, an IC50 (second compound 3 µM) of 6810 nM and a viability, T/C [1] of 95.2%. It also gave a viability, T/C [2] of 95.1%, a viability, T/C [3] of 77.5% and a viability, T/C [4] of 85.2%. It also gave a viability, T/C [5] of 110%, a viability, T/C [6] of 0.26% and a viability, T/C [7] of 98%. For the same compound, the viability, T/C [8] was 103%, the viability, T/C [9] was 71.4% and the viability, T/C [10] was 91.5%. It also gave a viability, T/C [11] of 128%, a viability, T/C [12] of 0.27% and a viability, T/C [13] of 110%. It also gave a viability, T/C [14] of 98.2%, a viability, T/C [15] of 108% and a viability, T/C [16] of 113%. It also gave a viability, T/C [17] of 141%, a viability, T/C [18] of 0.27% and a viability, T/C [19] of 130%. The viability, T/C [20] was 95.8%, the viability, T/C [21] was 109% and the viability, T/C [22] was 112%. The viability, T/C [23] was 152%, the viability, T/C [24] was 12.7% and the viability, T/C [25] was 120%. It also gave a viability, T/C [26] of 154%, a viability, T/C [27] of 146% and a viability, T/C [28] of 137%. It also gave a viability, T/C [29] of 188% and a viability, T/C [30] of 0.35%.

Work on C=CC(=O)N1CCN(c2nc(=O)n(-c3c(C)ccnc3C(C)C)c3nc(-c4c(O)cccc4F)c(F)cc23)C(C)C1 (stereo not given) + CCN1C(C(=O)NC23CCC(C(=O)O)(CC2)CC3)C(c2cccc(Cl)c2F)C2(C(=O)Nc3cc(Cl)ccc32)C12CCCCC2 yielded an IC50 (second compound 0.03 µM) greater than 10000 nM, an IC50 (second compound 0.0949 µM) greater than 10000 nM and an IC50 (second compound 0.3 µM) greater than 10000 nM. The IC50 (second compound 0.949 µM) was greater than 10000 nM, the IC50 (second compound 3 µM) was greater than 10000 nM and the viability, T/C [1] was 75.2%. It also gave a viability, T/C [2] of 67.4%, a viability, T/C [3] of 92.5% and a viability, T/C [4] of 113%. The viability, T/C [5] was 127%, the viability, T/C [6] was 98.3% and the viability, T/C [7] was 112%. It also gave a viability, T/C [8] of 107%, a viability, T/C [9] of 113% and a viability, T/C [10] of 116%. The viability, T/C [11] was 114%, the viability, T/C [12] was 105% and the viability, T/C [13] was 76.2%. It also gave a viability, T/C [14] of 110%, a viability, T/C [15] of 111% and a viability, T/C [16] of 122%. It also gave a viability, T/C [17] of 130%, a viability, T/C [18] of 91.2% and a viability, T/C [19] of 107%. For the same compound, the viability, T/C [20] was 110%, the viability, T/C [21] was 140% and the viability, T/C [22] was 130%. For the same compound, the viability, T/C [23] was 130%, the viability, T/C [24] was 90.2% and the viability, T/C [25] was 128%. For the same compound, the viability, T/C [26] was 135%, the viability, T/C [27] was 123% and the viability, T/C [28] was 141%. For the same compound, the viability, T/C [29] was 120% and the viability, T/C [30] was 112%.

For CNC(C)C(=O)NC1CN(S(=O)(=O)c2cccc(S(=O)(=O)N3CCC4CCC(C(=O)NC(c5ccccc5)c5ccccc5)N4C(=O)C(NC(=O)C(C)NC)C3)c2)CCC2CCC(C(=O)NC(c3ccccc3)c3ccccc3)N2C1=O (stereo not given) + CCN1C(C(=O)NC23CCC(C(=O)O)(CC2)CC3)C(c2cccc(Cl)c2F)C2(C(=O)Nc3cc(Cl)ccc32)C12CCCCC2, the IC50 (second compound 0.03 µM) was greater than 1000 nM, the IC50 (second compound 0.0949 µM) was greater than 1000 nM and the IC50 (second compound 0.3 µM) was greater than 1000 nM. It also gave an IC50 (second compound 0.949 µM) greater than 1000 nM, an IC50 (second compound 3 µM) greater than 1000 nM and a viability, T/C [31] of 141%. For the same compound, the viability, T/C [32] was 76.6%, the viability, T/C [1] was 86.4% and the viability, T/C [2] was 65.2%. The viability, T/C [3] was 66%, the viability, T/C [4] was 76% and the viability, T/C [33] was 111%. For the same compound, the viability, T/C [34] was 95.8%, the viability, T/C [7] was 90.7% and the viability, T/C [8] was 101%. It also gave a viability, T/C [9] of 105%, a viability, T/C [10] of 115% and a viability, T/C [35] of 120%. It also gave a viability, T/C [36] of 133%, a viability, T/C [13] of 84.3% and a viability, T/C [14] of 97.6%. The viability, T/C [15] was 94%, the viability, T/C [16] was 102% and the viability, T/C [37] was 87.8%. The viability, T/C [38] was 102%, the viability, T/C [19] was 158% and the viability, T/C [20] was 116%. For the same compound, the viability, T/C [21] was 84.2%, the viability, T/C [22] was 106% and the viability, T/C [39] was 166%. For the same compound, the viability, T/C [40] was 102%, the viability, T/C [25] was 141% and the viability, T/C [26] was 120%. For the same compound, the viability, T/C [27] was 151% and the viability, T/C [28] was 123%.

COc1c(OCCCN2CCOCC2)ccc2c3n(c(=NC(=O)c4cnc(N)nc4)nc12)CCN3 + CCN1C(C(=O)NC23CCC(C(=O)O)(CC2)CC3)C(c2cccc(Cl)c2F)C2(C(=O)Nc3cc(Cl)ccc32)C12CCCCC2 gave an IC50 (second compound 0.03 µM) of 4.56 nM, an IC50 (second compound 0.0949 µM) of 9.08 nM and an IC50 (second compound 0.3 µM) of 7.14 nM. For the same compound, the IC50 (second compound 0.949 µM) was 10.6 nM, the IC50 (second compound 3 µM) was 30.2 nM and the viability, T/C [31] was 53.5%. For the same compound, the viability, T/C [32] was 43.2%, the viability, T/C [1] was 34.5% and the viability, T/C [2] was 30.3%. The viability, T/C [3] was 24.3%, the viability, T/C [4] was 17.3% and the viability, T/C [33] was 61.1%. The viability, T/C [34] was 47.8%, the viability, T/C [7] was 38.2% and the viability, T/C [8] was 30.3%. The viability, T/C [9] was 19%, the viability, T/C [10] was 15.2% and the viability, T/C [35] was 60.2%. The viability, T/C [36] was 40.4%, the viability, T/C [13] was 43.3% and the viability, T/C [14] was 31%. It also gave a viability, T/C [15] of 24.2%, a viability, T/C [16] of 23.1% and a viability, T/C [37] of 71.6%. The viability, T/C [38] was 44.7%, the viability, T/C [19] was 40.5% and the viability, T/C [20] was 31.5%. For the same compound, the viability, T/C [21] was 23.2%, the viability, T/C [22] was 15.8% and the viability, T/C [39] was 93.6%. The viability, T/C [40] was 74.2%, the viability, T/C [25] was 43.5% and the viability, T/C [26] was 37.3%. The viability, T/C [27] was 22.5% and the viability, T/C [28] was 16.7%.
